How the values were obtained:
[1] = system: A549: a human lung cancer cell line; test: MTT analytical method, A549 cells; assay type: cell-based; details: 72 h
From the text: (§1) MTT analytical method was used to test the prodrugs for various tumor cells.
(§2) • 1) Cell lines: NCI-H460, A549, LOVO, HT-29, MDA-MB-231, SGC7901, HepG2 or BEL-7402 cell lines. Culture: adherent culturing in D-MEM (Hyclone, Inc.) containing 10% fetal calf serum. The initial cell concentration was about 3×10^5 /mL. The cell was passaged by 1:3 dilution in every 2-3 days. On the day before the test, the cell was passaged by 1:2 dilution, the cell concentration for the test was 5-10×10^5 /mL. • 2) Dissolution and dilution of compounds: according to the weight and molecular weight of the drugs provided, 100-200 μL of DMSO was added. Then normal saline was added to make the final diluted concentration of the drugs be 5 mM (Note that the final concentration of DMSO should not be more than 10%). • 3) D-MEM or RPMI 1640 cell culture medium, Gibco, Inc. • 4) Fetal calf serum Hyclone, Inc. • 5) Cell dissociation buffer, 0.25% Trypsin+0.02% EDTA. • 6) MTT solution, MTT Powder (Sigma) were dissolved in PBS buffer solution to make a solution of 5 mg/mL. The solution was filtered by a 0.22 μm micropore membrane and stored at −20° C. • 7) PBS buffer solution. • 8) 10% acidified SDS, 0.01N HCl. • 9) Centrifuge tubes, haustorial tubes etc. (BD, Inc.); 96-well plates (Costatr, Inc.) Procedures: • 1) Cell inoculation: Cells grown for 24 hours after passage, which cells were in good growth state, were used. The cells were harvested by the routine method. The cell concentration was adjust with a fresh culture solution to 2×10^5/mL (for adherent cells)-3×10^5/mL (for suspension cells). The adherent cells were inoculated at 100 μL/well and then cultivated in an incubator with 5% CO2 at 37° C. for 24 h. Thereafter the used culture solution was removed and 95 μL/well of fresh culture solution was added. The suspension cells were inoculated at 95 μL/well directly. • 2) Drugs treatment: 9 concentration grades were designed for every drug, and every concentration had 3 wells. The control group had 5 wells. The control group was tested simultaneously in each test. The final concentrations of a drug added were […], and 5 μL normal saline was added to the control group. • 3) Cell culture and detection: the cells were cultured in an incubator with 5% CO2 at 37° C. for 72 h after the drug was added, then 10 μL MTT was added to each well and the culture was continued for 4 h. 100 μL of 10% SDS (containing 0.01N HCl) was added to each well. After 24 h, the absorbance (A) of each well was determined by Bio-rad 680 ELISA with the detection wavelength of 570 nm and the reference wavelength of 630 nm. Calculation:
(§3) First, the absorbance (A) of each well was averaged (removing any data with big difference). […] A0 was the mean absorbance of the control wells. The effect curve of the drug concentration was drawn using EXCEL software and the drug concentration for 50% cell survival was calculated according to an appropriate computing methods.

[2] = system: HT29: a human colon cancer cell line; test: MTT analytical method, HT29 cells; assay type: cell-based; details: HT-29, 72 h
From the text: as §1, §2, §3

[3] = system: Bel7402: a human liver cancer cell line; test: MTT analytical method, Bel7402 cells; assay type: cell-based; details: Bel-7402, 72 h
From the text: as §1, §2, §3

[4] = system: H460 cells, a human lung cancer cell line, inoculated in nude mice; test: H460 tumor in nude mice, oral administration of SL-01; assay type: in vivo, Balb/c female nude mice; details: for Mean Volume of Tumor: Ftorafur 120 mg/kg gastric gavage
Procedure: 1. […] Suspension formulation was prepared using 2.5% starch for intragastric administration. […] In the test, it was dissolved in normal saline and filtered with microfiltration membrane and administrated by tail vein injection. Positive control drug: Ftorafur (FT-207) produced by Qilu Pharmaceutical Co. Ltd., oral formulation.
2. Experimental animals: 50 Balb/c female nude mice at 4-5 weeks old, purchased from Peking University Health Science Center.
1. Culture of tumor cells: H460 cells were cultured in an incubator with 5% CO2 at 37° C. using RPMI-1640 nutrient solution containing 10% fetal calf serum. The cells were passaged through routine method.
2.2 Method of inoculating tumor cells in nude mice: cells were collected when they grew to about […] in culture flasks. Cells were washed twice with PBS before they were digested, then 1.5 mL of digestion solution juices was added into every bottle. They were observed under a microscope and the digestion was terminated after the cells were shed. Cell suspension was collected into 50 mL of centrifugal tube and centrifuged and washed twice with PBS. It was counted and suspended with 10 mL of normal saline to get the tumor cell suspension of inoculated nude mice. The tumor cells (1×10^7/0.2 mL) were inoculated in the left front armpits of mice. The tumor growth was observed after the inoculation.
4. Evaluation protocols for drug treating effect: these mice were weighed before drug administration and every week thereafter. The long tumor pathline (a) and the short tumor pathline (b) were measured at the same time. The formula for calculating the tumor volume is V=(a×b^2)/2. Mice were euthanized after drug administration for 3 weeks. The tumor was taken out and weighed. […] W was the tumor weight of the treatment group.

Row | SMILES | IC50 [1] [µM] | IC50 [2] [µM] | IC50 [3] [µM] | further results
1 | CCCCCCCCCCCCOC(=O)c1ccccc1C(=O)Nc1ccn([C@@H]2O[C@H](CO)[C@@H](O)C2(F)F)c(=O)n1 [Compound 1, Dodecyl-2-((1-((2R,4R,5R)-3,3-difluoro-4-hydroxy-5-(hydroxymethyl)-tetrahydrofuran-2-yl)-2-oxo-1,2-dihydropyrimidin-4-yl)carbamoyl)benzoate] | 23 | 13 | 20 | –
2 | CCCCCCCCCCCOC(=O)c1ccccc1C(=O)Nc1ccn([C@@H]2O[C@H](CO)[C@@H](O)C2(F)F)c(=O)n1 [Compound 2, Undecyl-2-((1-((2R,4R,5R)-3,3-difluoro-4-hydroxy-5-(hydroxymethyl)-tetrahydrofuran-2-yl)-2-oxo-1,2-dihydropyrimidin-4-yl)carbamoyl)benzoate] | – | > 200 | 162 | –
3 | CCCCCCCCCCCCCCCCOC(=O)c1ccccc1C(=O)Nc1ccn([C@@H]2O[C@H](CO)[C@@H](O)C2(F)F)c(=O)n1 [Compound 3, Hexadecyl-2-((1-((2R,4R,5R)-3,3-difluoro-4-hydroxy-5-(hydroxymethyl)-tetrahydrofuran-2-yl)-2-oxo-1,2-dihydropyrimidin-4-yl)carbamoyl)benzoate] | – | 10 | 60 | –
4 | CCCCCCCCCCOC(=O)c1cccc(C(=O)Nc2ccn([C@@H]3O[C@H](CO)[C@@H](O)C3(F)F)c(=O)n2)c1 [Compound 6, Decyl-3-((1-((2R,4R,5R)-3,3-difluoro-4-hydroxy-5-(hydroxymethyl)-tetrahydrofuran-2-yl)-2-oxo-1,2-dihydropyrimidin-4-yl)carbamoyl)benzoate] | – | 13 | 30 | –
5 | CCCCCCCCCCCOC(=O)c1cccc(C(=O)Nc2ccn([C@@H]3O[C@H](CO)[C@@H](O)C3(F)F)c(=O)n2)c1 [Compound 7, Undecyl-3-((1-((2R,4R,5R)-3,3-difluoro-4-hydroxy-5-(hydroxymethyl)-tetrahydrofuran-2-yl)-2-oxo-1,2-dihydropyrimidin-4-yl)carbamoyl)benzoate] | – | 80 | 125 | –
6 | CCCCCCCCCCCOC(=O)c1ccc(C(=O)Nc2ccn([C@@H]3O[C@H](CO)[C@@H](O)C3(F)F)c(=O)n2)nc1 [Compound 10, Undecyl-6-((1-((2R,4R,5R)-3,3-difluoro-4-hydroxy-5-(hydroxymethyl)-tetrahydrofuran-2-yl)-2-oxo-1,2-dihydropyrimidin-4-yl)carbamoyl)nicotinate] | 13 | 4 | 30 | –
7 | CCCCCCCCCCCOC(=O)c1ccc(C(=O)Nc2ccn([C@@H]3O[C@H](CO)[C@@H](O)C3(F)F)c(=O)n2)cn1 [Compound 11, Undecyl-5-((1-((2R,4R,5R)-3,3-difluoro-4-hydroxy-5-(hydroxymethyl)-tetrahydrofuran-2-yl)-2-oxo-1,2-dihydropyrimidin-4-yl)carbamoyl)picolinate] | 3 | < 2 | 4 | –
8 | CCCCCCCCCCCCOC(=O)c1ncccc1C(=O)Nc1ccn([C@@H]2O[C@H](CO)[C@@H](O)C2(F)F)c(=O)n1 [Compound 12, Dodecyl-3-((1-((2R,4R,5R)-3,3-difluoro-4-hydroxy-5-(hydroxymethyl)-tetrahydrofuran-2-yl)-2-oxo-1,2-dihydropyrimidin-4-yl)carbamoyl)picolinate] | – | 20 | 60 | –
9 | CCCCCCCCCCCOC(=O)c1cccnc1C(=O)Nc1ccn([C@@H]2O[C@H](CO)[C@@H](O)C2(F)F)c(=O)n1 [Compound 14, Undecyl-2-((1-((2R,4R,5R)-3,3-difluoro-4-hydroxy-5-(hydroxymethyl)-tetrahydrofuran-2-yl)-2-oxo-1,2-dihydropyrimidin-4-yl)carbamoyl)nicotinate] | 140 | 35 | > 200 | –
10 | CCCCCCCCCCCCOC(=O)c1cccc(C(=O)Nc2ccn([C@@H]3O[C@H](CO)[C@@H](O)C3(F)F)c(=O)n2)n1 [Compound 18, Dodecyl-6-((1-((2R,4R,5R)-3,3-difluoro-4-hydroxy-5-(hydroxymethyl)-tetrahydrofuran-2-yl)-2-oxo-1,2-dihydropyrimidin-4-yl)carbamoyl)picolinate] | 15 | 7 | 16 | –
11 | CCCCCCCCCCCOC(=O)c1cccc(C(=O)Nc2ccn([C@@H]3O[C@H](CO)[C@@H](O)C3(F)F)c(=O)n2)n1 [Compound 19, Undecyl-6-((1-((2R,4R,5R)-3,3-difluoro-4-hydroxy-5-(hydroxymethyl)-tetrahydrofuran-2-yl)-2-oxo-1,2-dihydropyrimidin-4-yl)carbamoyl)picolinate] | – | 25 | 46 | –
12 | CCCCCCCCCCCCOC(=O)c1ccc(C(=O)Nc2ccn([C@@H]3O[C@H](CO)[C@@H](O)C3(F)F)c(=O)n2)s1 [Compound 20, Dodecyl-5-((1-((2R,4R,5R)-3,3-difluoro-4-hydroxy-5-(hydroxymethyl)-tetrahydrofuran-2-yl)-2-oxo-1,2-dihydropyrimidin-4-yl)carbamoyl)thiophene-2-carboxylate] | 13 | 6 | 14 | –
13 | CCCCCCCCCCCOC(=O)c1ccc(C(=O)Nc2ccn([C@@H]3O[C@H](CO)[C@@H](O)C3(F)F)c(=O)n2)s1 [Compound 21, Undecyl-5-((1-((2R,4R,5R)-3,3-difluoro-4-hydroxy-5-(hydroxymethyl)-tetrahydrofuran-2-yl)-2-oxo-1,2-dihydropyrimidin-4-yl)carbamoyl)thiophene-2-carboxylate] | – | 24 | 43 | –
14 | CCCCCCCCCCCOC(=O)C1CCCCC1C(=O)Nc1ccn([C@@H]2O[C@H](CO)[C@@H](O)C2(F)F)c(=O)n1 (stereo partly drawn) [Compound 36, Undecyl-2-((1-((2R,4R,5R)-3,3-difluoro-4-hydroxy-5-(hydroxymethyl)-tetrahydrofuran-2-yl)-2-oxo-1,2-dihydropyrimidin-4-yl)carbamoyl)cyclohexanecarboxylate] | – | > 200 | > 200 | –
15 | O=c1[nH]c(=O)n(C2CCCO2)cc1F (stereo not drawn) [FT-207, Ftorafur, reference compound] | – | – | – | Mean Volume of Tumor ([4]; day 7): 756.7 mm^3; Mean Volume of Tumor ([4]; day 14): 1347.0 mm^3; Mean Volume of Tumor ([4]; day 18): 1526.3 mm^3; Mean Volume of Tumor ([4]; day 22): 1779.4 mm^3; Inhibition ratio (tumor weight) ([4]; Positive control (Ftorafur 120 mg/kg gavage)): 38.5%; Mean Weight of Nude Mice ([4]; Positive control (Ftorafur 120 mg/kg gavage), day 0): 19.3 g; Mean Weight of Nude Mice ([4]; Positive control (Ftorafur 120 mg/kg gavage), day 7): 19.5 g; Mean Weight of Nude Mice ([4]; Positive control (Ftorafur 120 mg/kg gavage), day 14): 19.8 g; Mean Weight of Nude Mice ([4]; Positive control (Ftorafur 120 mg/kg gavage), day 22): 19.7 g; Tumor Weight, Average Value ([4]; Positive control (Ftorafur 120 mg/kg gavage), end of the experiment): 1.26 g; efficacy by t-test, in words ([4]; positive control group (Ftorafur 120 mg/kg gavage)): significant efficacy

Source: patent US8653048B2 (Sanlugen Pharmatech Ltd., priority 2009, dated 2014)
